Assay [1] has as its system collagen-induced platelet aggregation. The assay can be described thus: In vitro inhibition of platelet aggregation, collagen-induced (rabbit platelet rich plasma). It counts as cell-based. Particulars: Oryctolagus cuniculus, collagen suspension 0.05 ml, read-out: Platelet Inhibition In Vitro - Rabbit PRP EC50 vs. collagen. How it is done: (§1) The aggregometer method of Born (1), as modified by Mustard, et al. (2) was used to assess the in vitro activity of the various compounds as to inhibition of adenosine diphosphate (ADP) and collagen-induced platelet aggregation. Platelet rich plasma (PRP) was separated by centrifugation from citrated (3.8 percent) rabbit blood. […] The various compounds tested were dissolved in dimethylsulfoxide (DMSO) so that 5 mcl added to the platelet rich plasma would yield the desired test concentration. Vehicle control trials were done and compared with aggregation induced in platelet rich plasma containing various concentrations of the test compounds. Dose response curves were obtained and Effective Concentration (EC50) values calculated.

For assay [2], the target named is T1, cAMP phosphodiesterase (human platelets) (Homo sapiens, UniProt Q14432).
T1 construct: enzynme obtained from human platelets; from tissue; host or cells: human platelets
T1 sequence (Q14432 whole entry): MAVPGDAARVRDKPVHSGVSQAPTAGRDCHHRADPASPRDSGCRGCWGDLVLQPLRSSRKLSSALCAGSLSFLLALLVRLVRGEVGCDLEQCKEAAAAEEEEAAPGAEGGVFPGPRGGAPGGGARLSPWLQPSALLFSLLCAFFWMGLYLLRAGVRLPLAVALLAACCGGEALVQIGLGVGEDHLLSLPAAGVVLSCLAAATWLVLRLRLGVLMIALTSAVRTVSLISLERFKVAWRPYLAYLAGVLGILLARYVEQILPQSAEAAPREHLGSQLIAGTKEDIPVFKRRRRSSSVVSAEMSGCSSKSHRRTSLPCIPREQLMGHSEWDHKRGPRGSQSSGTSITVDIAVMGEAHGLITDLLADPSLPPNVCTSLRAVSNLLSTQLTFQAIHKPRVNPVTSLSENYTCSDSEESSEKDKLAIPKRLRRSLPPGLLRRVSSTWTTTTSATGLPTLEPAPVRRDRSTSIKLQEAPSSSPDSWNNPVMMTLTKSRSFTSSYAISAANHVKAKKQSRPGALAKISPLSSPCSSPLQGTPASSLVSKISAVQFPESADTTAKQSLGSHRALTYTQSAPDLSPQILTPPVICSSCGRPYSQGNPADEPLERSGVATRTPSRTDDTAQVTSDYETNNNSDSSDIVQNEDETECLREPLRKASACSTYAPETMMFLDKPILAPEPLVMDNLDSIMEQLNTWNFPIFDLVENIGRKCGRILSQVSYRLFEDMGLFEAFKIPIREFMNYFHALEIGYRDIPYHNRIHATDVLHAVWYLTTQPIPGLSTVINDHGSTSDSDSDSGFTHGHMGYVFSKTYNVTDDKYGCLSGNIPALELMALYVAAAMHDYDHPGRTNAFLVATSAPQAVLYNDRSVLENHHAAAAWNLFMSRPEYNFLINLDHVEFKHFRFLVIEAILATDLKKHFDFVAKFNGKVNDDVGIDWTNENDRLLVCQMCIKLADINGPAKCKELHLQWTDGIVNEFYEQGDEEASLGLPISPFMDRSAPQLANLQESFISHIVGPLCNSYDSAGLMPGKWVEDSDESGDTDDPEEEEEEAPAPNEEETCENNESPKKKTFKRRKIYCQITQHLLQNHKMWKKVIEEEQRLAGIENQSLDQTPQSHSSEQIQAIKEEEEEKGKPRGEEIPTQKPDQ
In words: Inhibition of cyclic AMP phosphodiesterase. It counts as biochemical. Particulars: PDE from human platelets. How it is done:
This assay is carried out essentially as described by Thompson, et al., Methods in Enzymology, 38, 205-212 (1974). Briefly, tritium labeled cyclic adenosine monophosphate (cAMP) is incubated with a phosphodiesterase (PDE) enzynme obtained from human platelets which converts a portion of the cAMP to 5'AMP in culture tubes. This reaction is terminated by submerging the tubes in a boiling water bath after which they are placed on ice and an aliquot of snake venom is added to each tube. This, during a second incubation, converts the 5'AMP to adenosine. Ion exchange resin is added to bind the remaining cyclic AMP. The tubes are centrifuged to sediment the resin and a portion of the clear supernatent (which contains radioactive adenosine) is counted in a liquid scintillation counter. The cAMP phosphodiesterase inhibition activity of a test agent is determined by pre-incubating the PDE enzyme preparation with the test agent.

For assay [3], the system named is adenosine diphosphate (ADP)-induced platelet aggregation. The assay can be described thus: In vitro inhibition of platelet aggregation, ADP-induced (rabbit platelet rich plasma). Particulars: Oryctolagus cuniculus, ADP 0.5 mcg/ml, read-out: Platelet Inhibition In Vitro - Rabbit PRP EC50 vs. ADP. It counts as cell-based. How it is done:
as §1

For assay [4], the system named is ferrets (right ventricular contractile force, blood pressure). The assay can be described thus: In vivo inotropic activity in ferrets. Also noted: species or system ferret. Particulars: Mustela putorius, 1 h, anesthetized ferret, intraduodenal, 60 minutes. How it is done:
This test is carried out in ferrets as follows. Fasted anesthetized ferrets are instrumented to study hemodynamic parameters as well as right ventricular contractile force (RVCF) using a Walton-Brodie open strain guage arch. Drugs are administered intraduodenally as solutions in DMSO (1 mL or less) and effects on myocardial contractile force and other parameters are monitored for 60 minutes after dosing. Changes in contractile force in response to drug treatment are expressed in terms of percent change from predose control.

For assay [5], the system named is platelet aggregation (Ex Vivo vs. ADP). The assay can be described thus: Inhibition of platelet aggregation following oral administration (Ex vivo). It counts as in vivo. Particulars: Rattus norvegicus, rats, oral by gavage, 2 hours after dosing. How it is done: This test is sometimes referred to in the art as an Ex vivo method and was initially described by Fleming, et al., Arch. Int. Pharmacodyn. Ther., 199, 164 (1972). Briefly, the assay is essentially carried out as follows.
Aggregometry is performed in vitro as previously described on platelet rich plasma samples obtained from rats dosed with either test compounds or the vehicle. In all cases, activity is determined 2 hours after the drug is administered orally at various doses by gavage as a suspension in […] plus a few drops of Tween 20.

Setting [6] is: vs predose control, read-out: Maximum Percentage Change Right Ventricular Contractile Force (RVCF).
[7] abbreviates: read-out: Maximum Percentage Change Blood Pressure.

For orientation: EC50 means the concentration giving half of the maximal effect. One may read the IC50 as the midpoint of a concentration-inhibition curve. A low value points to inhibition by little substance. Usually ED50 stands for the dose at which the effect has come halfway, by size or by number of responders. Read a low ED50 as greater potency.

Converted amounts (≈) assume the structure as drawn. Like-named read-outs stand apart in the source and are kept apart here. A value given as a limit tells only on which side of the number the result lay.

With `COC(=O)CCCOc1ccc2nc3[nH]c(=O)[nH]c3cc2c1` [Example 10, Methyl 4-[(2,3-Dihydro-2-oxo-1H-imidazo[4,5-b]quinolin-7-yl)oxy]butanoate], the values for the EC50 in assay [1] and in assay [3] were 6 ng/mL (≈ 0.0199 µM) and 20 ng/mL (≈ 0.0664 µM), respectively. Moreover, the half-inhibitory concentration (IC50) in assay [2] amounted to 400 nM. Further, the change in vivo at 0.3 mg/kg in assay [4] (setting [6]) was 9 ± 10%; in assay [4] (setting [7]), -14 ± 9%. For the same molecule, the change in vivo at 3 mg/kg in assay [4] (setting [6]) was -9 ± 1%; in assay [4] (setting [7]), -14 ± 8%. In addition, the ED50 in assay [5] is 4.4 mg/kg.

Take `O=C(CCCOc1ccc2nc3[nH]c(=O)[nH]c3cc2c1)NC12CC3CC(CC(C3)C1)C2` [Example 16, 4-[(2,3-Dihydro-2-oxo-1H-imidazo[4,5-b]quinolin-7-yl)oxy]-N-(tricyclo[3.3.1^3,7]decan-7-yl)butanamide]: the concentration giving a half-maximal response (EC50) amounted to 20 ng/mL (≈ 0.0476 µM) in assay [1] and 50 ng/mL (≈ 0.119 µM) in assay [3]. The molecule also yielded an IC50 in assay [2] of 1 nM. For the same molecule, the change in vivo at 3 mg/kg in assay [4] (setting [6]) was 6 ± 3%; in assay [4] (setting [7]), -10 ± 4%. Also, it took a dose of 4 mg/kg to reach the 50% effect level in assay [5] (ED50).

As for `Cn1c(=O)[nH]c2nc3ccc(OCCCC(=O)NC4CCCCC4)cc3cc21` [Example 19, N-Cyclohexyl-4-[(2,3-dihydro-1-methyl-2-oxo 1H-imidazo[4,5-b]quinolin-7-yl)oxy]butanamide], the EC50 in assay [1] was 9 ng/mL (≈ 0.0235 µM); in assay [3] it was 70 ng/mL (≈ 0.183 µM). For the same molecule, in assay [2], the 50% inhibitory concentration (IC50) stood at 700 nM. In assay [5], the 50% effect level (ED50) was put at a dose of 8.3 mg/kg.

`COC(=O)CN(C(=O)CCCOc1ccc2nc3[nH]c(=O)[nH]c3cc2c1)C1CCCCC1` [Example 21, N-Cyclohexyl-N-[4-[(2,3-dihydro-2-oxo-1H-imidazo[4,5-b]quinolin-7-yl)oxy]-1-oxobutyl]glycine Methyl Ester]: the EC50 in assay [1] turned out to be 0.8 ng/mL (≈ 0.00182 µM); in assay [3], 2.5 ng/mL (≈ 0.00568 µM). In assay [2], this molecule had an IC50 of 0.5 nM. Also, the change in vivo at 3 mg/kg in assay [4] (setting [6]) is 26%; in assay [4] (setting [7]), -26%. In assay [5], this molecule registered a median effective dose (ED50) of less than 3 mg/kg.

Regarding `CN(C(=O)CCCOc1ccc2nc3[nH]c(=O)[nH]c3cc2c1)C1CCCCCC1` [Example 22, N-Cycloheptyl-N-methyl-4-[(2,3-dihydro-2-oxo-1H-imidazo[4,5-b]quinolin-7-yl)oxy]butanamide], the concentration for a half-maximal effect (EC50) stood at 2 ng/mL (≈ 0.00504 µM) in assay [1] and 7 ng/mL (≈ 0.0177 µM) in assay [3]. Also, the change in vivo at 0.3 mg/kg in assay [4] (setting [6]) was 29 ± 5%; in assay [4] (setting [7]) it was -26 ± 4%. The molecule also came in with a 50% effective dose (ED50) in assay [5] of 6.2 mg/kg.

Turning to `CN(C(=O)CCCOc1ccc2nc3[nH]c(=O)[nH]c3cc2c1)C1CCCCC1` [Example 30, N-Cyclohexyl-N-methyl-4-[(2,3-dihydro-2-oxo-1H-imidazo[4,5-b]quinolin-7-yl)oxy]butanamide], the EC50 in assay [1] stood at 1 ng/mL (≈ 0.00261 µM). The same molecule had a 50% inhibitory concentration (IC50) in assay [2] of 2 nM. Besides, the EC50 in assay [3] worked out at 2 ng/mL (≈ 0.00523 µM). Moreover, in assay [4] (setting [6]), the change in vivo at 0.03 mg/kg is 8 ± 2%, the change in vivo at 0.3 mg/kg came to 41 ± 5% and the change in vivo at 3 mg/kg is 35 ± 2%. Besides, in assay [4] (setting [7]), the change in vivo at 0.03 mg/kg was -3%, the change in vivo at 0.3 mg/kg was -27 ± 6% and the change in vivo at 3 mg/kg was -30 ± 2%. It took a dose of 2.4 mg/kg to reach the 50% effect level in assay [5] (ED50).

In the case of `CN(C(=O)CCCOc1ccc2nc3nc(O)n(C)c3cc2c1)C1CCCCC1` [Example 31, N-Cyclohexyl-N-methyl-4-[(2,3-dihydro-1-methyl-2-oxo-1H-imidazo[4,5-b]quinolin-7-yl]oxo]butanamide], the figures for the concentration for a half-maximal effect (EC50) in assay [1] and in assay [3] were 18 ng/mL (≈ 0.0454 µM) and 20 ng/mL (≈ 0.0504 µM), respectively. Besides, in assay [2], the IC50 stood at 200 nM. Besides, the change in vivo at 0.3 mg/kg in assay [4] (setting [6]) is 0%; in assay [4] (setting [7]), -28 ± 5%. The change in vivo at 3 mg/kg was 3 ± 6% in assay [4] (setting [6]) and -36 ± 3% in assay [4] (setting [7]). Moreover, the 50% effective dose (ED50) in assay [5] stood at 2.1 mg/kg.

For the molecule `CN(C(=O)CCCCOc1ccc2nc3[nH]c(=O)[nH]c3cc2c1)C1CCCCC1` [Example 32, N-Cyclohexyl-N-methyl-5-[(2,3-dihydro-2-oxo-1H-imidazo[4,5-b]quinolin-7-yl)oxo]pentanamide], the EC50 in assay [1] worked out at 0.8 ng/mL (≈ 0.00202 µM); in assay [3] it was 3 ng/mL (≈ 0.00757 µM). The same molecule showed an IC50 in assay [2] of 2 nM. Also, the change in vivo at 0.3 mg/kg in assay [4] (setting [6]) is 18 ± 4%; in assay [4] (setting [7]), -27 ± 10%. Moreover, the ED50 in assay [5] was found to be 3.8 mg/kg.

As for `CN(C(=O)CCCCOc1ccc2nc3[nH]c(=O)[nH]c3cc2c1)C1CCCCCC1` [Example 33, N-Cycloheptyl-N-methyl-5-[(2,3-dihydro-2-oxo-1H-imidazo[4,5-b]quinolin-7-yl)oxy]pentanamide], the figures for the half-maximal effective concentration (EC50) in assay [1] and in assay [3] were 0.6 ng/mL (≈ 0.00146 µM) and 2 ng/mL (≈ 0.00487 µM), respectively. In addition, 0.4 nM corresponded to half-maximal inhibition in assay [2] (IC50). Further, the change in vivo at 0.3 mg/kg in assay [4] (setting [6]) is 27 ± 8%; in assay [4] (setting [7]), -34 ± 2%. Further, in assay [5], the 50% effect level (ED50) was put at a dose of 1.7 mg/kg.

In the case of `O=c1[nH]c2cc3cc(OCCCCS(=O)(=O)c4ccccc4)ccc3nc2[nH]1` [Example 35, 7-[4-(Phenylsulfonyl)butoxy]-1,3-dihydro-2H-imidazo[4,5-b]quinolin-2-one], the IC50 in assay [2] amounted to 1 nM. The EC50 in assay [3] was 70 ng/mL (≈ 0.176 µM). Besides, the change in vivo at 3 mg/kg in assay [4] (setting [6]) is 11 ± 5%; in assay [4] (setting [7]), -10 ± 8%. Also, the ED50 in assay [5] was 4.3 mg/kg.

These data come from patent publication US4775674A, “Imidazoquinolinylether derivatives useful as phosphodiesterase and blood aggregation inhibitors” (Bristol-Myers Company, priority 1986, dated 1988).
